The text below walks through data of US20200291100A1, “TREATMENT OF AGE-RELATED AND MITOCHONDRIAL DISEASES BY INHIBITION OF HIF-1 ALPHA FUNCTION” (President and Fellows of Harvard College, priority 2012, published 2020).

In one assay the test system is PGC-1α/β KO cells. As to the kind of experiment: Pyruvate supplementation of PGC-1α/β KO cells with or without DMOG, mitochondrial-encoded gene expression. It is filed as cell-based, mouse. As to conditions: DMOG added to pyruvate-treated cells. From the text:
FIGS. 21A-21N provide additional data related to the content of FIG. 14. FIG. 21A depicts HIF-1α target genes (PGK-1, Glut1, PDK1 and Vegfa) expression in gastrocnemius of WT and SIRT1 KO mice. Relative expression values were normalized to WT mice (n=5). FIG. 21B depicts hypoxia response element activity in primary myoblasts isolated from WT and SIRT1 KO mice and treated with or without DMOG. Relative luciferase activity was normalized to WT cells (n=6, *p<0.05 versus WT). FIG. 21C depicts a representative immunoblot of HIF-1a and Tubulin in PGC-1α/β KO myotubes treated with adenovirus overexpressing SIRT1 or empty vector as well as treatment with DMSO or with HIF stabilizing compound DMOG. FIG. 21D depicts NAD+/NADH ration measured in primary WT myoblasts treated with either 10 mM pyruvate, 10 mM lactate or vehicle for 24 h (n=4). […] FIG. 21J depicts mitochondrial DNA content analyzed by qPCR in control, HIF-1α DPA or HIF-2α DPA C2C12 cells treated with adenovirus overexpressing SIRT1 or empty vector. […] FIG. 21K depicts ARNT mRNA analyzed by qPCR in C2C12 cells infected with ARNT or nontargeting shRNA. […] FIG. 21L depicts mitochondrial DNA content analyzed by qPCR in C2C12 cells infected with ARNT or nontargeting shRNA. […] FIG. 21M depicts ND1, Cytb, COX1 and ATP6 mRNA analyzed by qPCR in C2C12 cells infected with ARNT or nontargeting shRNA. […] Values are expressed as mean±SEM. […]

Another assay deals with TFAM promoter. As to the kind of experiment: TFAM promoter luciferase assay in primary WT myoblasts treated with DMOG. In kind it is cell-based, mouse. To be noted: DMOG versus DMSO. As for the experimental part: TFAM promoter, VHL promoter, HRE and c-Myc activity were determined using a luciferase-based system. Luciferase activity was measured using the Dual-Luciferase Reporter Assay System (Promega) with Renilla as the reference.
TFAM promoter activity was evaluated using a TFAM promotes-luc plasmid. A fragment of the mouse Tfam promoter (1.4 kb upstream of the coding sequence) was cloned into a pGL4.15 vector (Promega). Luciferase activity was measured using the Dual-Luciferase Reporter Assay System (Promega) with Renilla as the reference 48 h after transfection.
c-Myc was previously shown to directly bind to the TFAM promoter in cancer cells (Li et al., 2005) and consistent with this report, it was observed that knockdown of c-Myc in primary myoblasts leads to decreased TFAM promoter activity (FIG. 16E). Mutation of the c-Myc consensus sequence, CACGTG, present in the TFAM promoter decreased the promoter activity by about half of the full length promoter (FIG. 16F). […] Next it was tested whether c-Myc binding site was required for SIRT1's ability to induce TFAM promoter activity. Overexpression of SIRT1 in primary myoblasts lead to an increase in the full length TFAM promoter activity, however disruption of c-Myc binding site was sufficient to completely prevent the ability of SIRT1 to induce TFAM promoter activity (FIG. 16H). […]

With `COC(=O)CNC(=O)C(=O)OC` [DMOG, dimethyloxaloylglycine], the “effect on NAD+ mediated increases in mitochondrial-encoded genes” value in the assay with PGC-1α/β KO cells is given as “inhibited”. The “full length TFAM promoter activity” value in the assay with TFAM promoter is on record as “reduces”. Also, the “TFAM promoter activity, c-Myc consensus sequence mutation” value in the assay on TFAM promoter (in the absence of the c-Myc binding site) is recorded as “does not have an additive effect”.
